Data set [1] is described as follows: Electrochemistry: metal-centered redox potential. It is filed as physicochemical. The settings on record: metal centered, vs NHE, pH 7.8 if not otherwise specified. How it is done: Electrochemistry. The electrochemical characterization was performed as described previously on a Voltammetric Analyzer Model 600 (CH instrument) using a glassy carbon electrode (Ag/AgCl reference and Pt auxiliary electrodes), at 0.5 mM porphyrin, pH 7.8 (0.05 M phosphate buffer), 0.1 M NaCl. The potentials were standardized against potassium ferricyanide/potassium ferrocyanide couple (Batinic-Haberle et al, Arch. Biochem. Biophys. 343:225 (1997); Kolthof et al, J. Phys. Chem. 39:945 (1974)).
Electrochemistry. The metal-centered redox behavior of all metalloporphyrin products was reversible. The half-wave potentials (E^O1/2) were calculated as the average of the cathodic and anodic peaks and are given in mV vs NHE (Table 5). The average shift per chlorine is +55 mV (Table 5), which is in agreement with the values previously reported for H2TPP derivatives (between −50 and +70 mV) (Sen et al, Chem. Soc. Faraday Trans. 93:4281 (1997); Autret et al. J. Chem. Soc. Dalton Trans. 2793 (1996); Hariprasad et al, J. Chem. Soc. Dalton Trans. 3429 (1996); Tagliatesta et al, Inorg. Chem. 35:5570 (1996); Ghosh, J. Am. Chem. Soc. 117:4691 (1995); Takeuchi et al, J. Am. Chem. Soc. 116:9730 (1994); Binstead et al, Inorg. Chem. 30:1259 (1991); Giraudeau et al, J. Am. Chem. Soc. 101:3857 (1979)). This shift appears to be higher (˜+65 mV) between 0 and 1, and between 2 and 3 chlorines (Table 5). […] The manganese redox state of MnCl4TE-2-PyP^5 (E^O1/2=+448 mV) and MnOBTMPyP^4+ (E^O1.2=+480 mV) is 3+ and 2+, respectively. This difference may be explained by their difference in terms of redox potential (˜30 mV) but also by structural considerations, for instance an increased distortion of the porphyrin ring in the case of MnOBTMPyP^4+. (Batinic-Haberle et al, Arch. Biochem. Biophys. 343:225 (1997); Ochsenbein et al, Angew. Chem. Int. Ed. Engl. 33:348 (1994)).

For data set [2], the system named is rat brain homogenates. Nature of the data set: Iron/ascorbate mediated lipid peroxidation of rat brain homogenates (TBARS). It counts as biochemical. The settings on record: for IC50: rat brain homogenate, 30 minutes incubation with iron and ascorbate, TBARS. On the procedure:
Frozen adult Sprague-Dawley rat brains (Pel-Freez, Rogers, Ark.) were homogenized with a polytron (Turrax T25, Germany) in 5 volumes of ice cold 50 mM potassium phosphate at pH 7.4. Homogenate protein concentration was determined with the Coomassie Plus protein assay (Pierce, Rockford, Ill.) using bovine serum albumin as a standard. The homogenate volume was adjusted with buffer to give a final protein concentration of 10 mg/ml and frozen as aliquots at […].
Rat brain homogenates (2 mg protein) were incubated with varying concentrations of antioxidant at 37° C. for 15 minutes. Oxidation of the rat brain homogenate was initiated by the addition of 0.1 ml of a freshly prepared anaerobic stock solution containing iron(II) chloride (0.25 mM) and ascorbate (1 mM) as previously reported (Braughler et al, J. Biol. Chem. 262:10438 (1987)). Samples (final volume 1 ml) were placed in a shaking water bath at 37° C. for 30 minutes. The reactions were stopped by the addition of 0.1 ml of a stock butylated hydroxytoluene (60 mM) solution in ethanol.
The concentration of thiobarbituric acid reactive species (TBARS) in rat brain homogenates was used as a index of lipid peroxidation (Bernhem et al, J. Biol. Chem. 174:257 (1948); Witz et al, J. Free Rad. Biol. Med. 2:33 (1986); Kikugawa et al, Anal. Biochem. 202:249 (1992); Jentzsch et al, Free Rad. Biol. Med. 20P251 (1996)). Malondialdehyde standards were obtained by adding 8.2 μl of 1,1,3,3-tetramethoxypropane in 10 ml of 0.01 M HCl and mixing for 10 minutes at room temperature. This stock was further diluted in water to give standards that ranged from 0.25 to 25 μM. Samples or standards (200 μl) were acidified with 200 μl of 0.2 M phosphoric acid in 1.5 ml locking microfuge tubes. The color reaction was initiated by the addition of 25 μl of a 0.11M thiobarbituric acid solution and samples were placed in a 90° C. heating block for 45 minutes. TBARS were extracted with 0.5 ml of n-butanol by vortexing samples for 3 minute and chilling on ice for 1 minute. The samples were then centrifuged at 12,000×g for 3 minutes, 150 μl aliquots of the n-butanol phase were placed in each well of a 96-well plate and read at 535 nm in a Thermomax platereader (Molecular Devices, Sunnyvale, Calif.) at 25° C. Sample absorbencies were converted to MDA equivalencies (μM) by extrapolation from the MDA standard curve. None of the antioxidants at concentrations employed in these studies affected the reaction of MDA standards with thiobarbituric acid and reactions without TBA were used as subtraction blanks.
Data were presented as their means ±SE. The inhibitory concentration of antioxidants that decreased the degree of lipid peroxidation by 50% (IC50) and respective 95% confidence intervals (CI) were determined by fitting a sigmoidal curve with variable slope to the data (GraphPad Prizm, San Diego, Calif.).

Data set [3] in a line: SOD activity in U/mg (reduction of cytochrome c or photoreduction of NBT). It counts as biochemical. The settings on record: unit = amount that inhibits one half the reduction of cytochrome c or photoreduction of NBT.
The conditions of data set [4]: vs NHE; literature comparators; cited from earlier work.
For data set [5] the following is noted: cited from earlier work; for kcat of comparison compounds: literature comparators.

For `O=C(O)c1ccc(-c2c3nc(c(-c4ccc(C(=O)O)cc4)c4ccc([nH]4)c(-c4ccc(C(=O)O)cc4)c4nc(c(-c5ccc(C(=O)O)cc5)c5ccc2[nH]5)C=C4)C=C3)cc1.[Fe+3]` [FeTBAP, Ferric 5,10,15,20-tetrakis(4-benzoic acid) porphyrin], the “Redox Potential (E1/2)” value in data set [1] is reported as “+0.01 V”. Half-maximal inhibition in data set [2] (IC50) required 212 µM. In data set [3], this molecule had an SOD of 24 U/mg.
As to `C[n+]1ccc(-c2c3nc(c(-c4cc[n+](C)cc4)c4[n-]c(c(Br)c4Br)c(-c4cc[n+](C)cc4)c4nc(c(-c5cc[n+](C)cc5)c5[n-]c2c(Br)c5Br)C(Br)=C4Br)C(Br)=C3Br)cc1.[Mn+3]` [MnOBTM-4-PyP, Manganese β-octabromo-meso-tetrakis-(N-methylpyridinium-4-yl)porphyrin], the “E°1/2 half-wave potential of comparison compounds” value in data set [4] was “+480 mV”. Besides, the “kcat of comparison compounds” value in data set [5] was 22 10^7 M^−1 s^−1. In addition, in data set [1], the “Redox Potential (E1/2)” value is reported as “+0.48 V”. The midpoint of inhibition in data set [2], the IC50, lay at 1.3 µM. The SOD in data set [3] was 18,460 U/mg.
As to `Cc1c(C)c2c(c(C)c1O)CCC(C)(C(=O)O)O2` (centres unmarked) [Trolox], in data set [2], the half-inhibitory concentration (IC50) was determined as 204 µM.
In data set [2], `C[n+]1ccccc1-c1c2nc(c(-c3cccc[n+]3C)c3ccc([nH]3)c(-c3cccc[n+]3C)c3nc(c(-c4cccc[n+]4C)c4ccc1[nH]4)C=C3)C=C2.[Zn+2]` [ZnTM-2-PyP] showed a half-maximal inhibitory concentration (IC50) of 591 µM. Moreover, in data set [3], the SOD entry is listed as “trace”.
In data set [2], `C[n+]1ccc(-c2c3nc(c(-c4cc[n+](C)cc4)c4ccc([nH]4)c(-c4cc[n+](C)cc4)c4nc(c(-c5cc[n+](C)cc5)c5ccc2[nH]5)C=C4)C=C3)cc1.[Zn+2]` [ZnTM-4-PyP] had an IC50 of 241 µM. Besides, the SOD result in data set [3] is reported as “trace”.
As for “CuZnSOD: dimeric copper- and zinc-containing superoxide dismutase enzyme; bovine in Example VIII”, in data set [4], the “E°1/2 half-wave potential of comparison compounds” value is recorded as “+260 mV”. Further, the “kcat of comparison compounds” value in data set [5] was 200 10^7 M^−1 s^−1. For the same molecule, in data set [5] (per active site), the “kcat per active site” value is given as 10^9 M^−1s^−1. Further, the “Redox Potential (E1/2)” value in data set [1] is listed as “+0.35 V”. The same molecule showed an IC50 in data set [2] of 15 µM. In data set [3], the SOD was 5,100 U/mg.
For MnTBAP, in data set [1], the “Redox Potential (E1/2)” value is −0.19 V. Besides, the IC50 in data set [2] came out at 29 µM. Further, in data set [3], the SOD was determined as 179 U/mg.

B1: catalase: enzymatic antioxidant (protein, UniProt P04040 2-527, looked up)
Catalase: ADSRDPASDQMQHWKEQRAAQKADVLTTGAGNPVGDKLNVITVGPRGPLLVQDVVFTDEMAHFDRERIPERVVHAKGAGAFGYFEVTHDITKYSKAKVFEHIGKKTPIAVRFSTVAGESGSADTVRDPRGFAVKFYTEDGNWDLVGNNTPIFFIRDPILFPSFIHSQKRNPQTHLKDPDMVWDFWSLRPESLHQVSFLFSDRGIPDGHRHMNGYGSHTFKLVNANGEAVYCKFHYKTDQGIKNLSVEDAARLSQEDPDYGIRDLFNAIATGKYPSWTFYIQVMTFNQAETFPFNPFDLTKVWPHKDYPLIPVGKLVLNRNPVNYFAEVEQIAFDPSNMPPGIEASPDKMLQGRLFAYPDTHRHRLGPNYLHIPVNCPYRARVANYQRDGPMCMQDNQGGAPNYYPNSFGAPEQQPSALEHSIQYSGEVRRFNTANDDNVTQVRAFYVNVLNEEQRKRLCENIAGHLKDAQIFIQKKAVKNFTEVHPDYGSHIQALLDKYNAEKPKNAIHTFVQSGSHLAAREKANL
On to B1, for which, in data set [2] (up to concentrations of 1 mg/ml), the “inhibition of iron/ascorbate-initiated lipid peroxidation” value was “did not inhibit”.

As a reminder, the IC50 is the concentration that gives 50% inhibition.

The values above are taken from patent US20080113956A1, “Substituted Porphyrins” (priority 1997, published 2008).
